Experimental data from patent US12209087B2, “AKT1 modulators” (Alterome Therapeutics, Inc., priority 2022, dated 2025).

What follows are compounds tested against T1, full length AKT E17K (Homo sapiens, UniProt P31749, E17K) (assay: NanoBRET Target Engagement (TE) Assay). Conditions: competitive displacement of tracer in cells, read-out: AKT1 E17K IC50.
T1 construct: host or cells: HEK-293 (ATCC CRL-1573)
Type: cell-based
Summary of the method: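 Compound and tracer incubated 2 h before luminescence at donor 450 nm and acceptor 600 nm, with extracellular signal inhibited. EC50 by sigmoidal variable-slope regression.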

T1 sequence (P31749 whole entry E17K): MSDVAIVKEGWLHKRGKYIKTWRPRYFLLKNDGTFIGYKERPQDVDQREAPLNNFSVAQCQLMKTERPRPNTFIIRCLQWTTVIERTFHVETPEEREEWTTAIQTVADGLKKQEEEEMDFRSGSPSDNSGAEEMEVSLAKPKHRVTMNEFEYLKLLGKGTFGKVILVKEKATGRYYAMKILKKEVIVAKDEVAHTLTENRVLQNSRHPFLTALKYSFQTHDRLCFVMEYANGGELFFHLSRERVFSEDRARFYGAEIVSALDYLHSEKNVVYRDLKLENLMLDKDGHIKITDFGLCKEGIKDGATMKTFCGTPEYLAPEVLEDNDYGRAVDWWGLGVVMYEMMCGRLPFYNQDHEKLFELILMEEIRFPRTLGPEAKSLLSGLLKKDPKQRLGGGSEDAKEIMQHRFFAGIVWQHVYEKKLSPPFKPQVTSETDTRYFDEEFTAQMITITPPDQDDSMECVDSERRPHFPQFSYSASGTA

Compound	IC50 [nM]
C[C@@H]1CN(Cc2ccc(-n3c(-c4cccnc4N)nc4ccc(-c5ccccc5)nc43)cc2)C[C@H](C)N1c1cc(C#N)ncn1 [Example 380, 6-((2S,6R)-4-(4-(2-(2-Aminopyridin-3-yl)-5-phenyl-3H-imidazo[4,5-b]pyridin-3-yl)benzyl)-2,6-dimethylpiperazin-1-yl)pyrimidine-4-carbonitrile]	600 to 10000
N#Cc1nccc(NC2CCN(Cc3ccc(-n4c(-c5cccnc5N)nc5cc(F)cnc54)cc3)CC2)n1 [Example 402, 4-((1-(4-(2-(2-Aminopyridin-3-yl)-6-fluoro-3H-imidazo[4,5-b]pyridin-3-yl)benzyl)piperidin-4-yl)amino)pyrimidine-2-carbonitrile]	< 15
N#Cc1nccc(NC2CCN(Cc3ccc(-n4c(-c5cccnc5N)nc5ccc([C@@H]6CCOC6)nc54)cc3)CC2)n1 (single isomer, unassigned) [Example 506]	< 15
N#Cc1nccc(NC2CCN(Cc3ccc(-n4c(-c5cccnc5N)nc5ccc(N6CCCNC(=O)C6)nc54)cc3)CC2)n1 [Example 318, 4-((1-(4-(2-(2-Aminopyridin-3-yl)-5-(3-oxo-1,4-diazepan-1-yl)-3H-imidazo[4,5-b]pyridin-3-yl)benzyl)piperidin-4-yl)amino)pyrimidine-2-carbonitrile]	15 to 60
N#Cc1nccc(NC2CCN(Cc3ccc(-n4c(-c5cccnc5N)nc5ccc(-c6ccc(F)cc6F)nc54)cc3)CC2)n1 [Example 475, 4-((1-(4-(2-(2-Aminopyridin-3-yl)-5-(2,4-difluorophenyl)-3H-imidazo[4,5-b]pyridin-3-yl)benzyl)piperidin-4-yl)amino)pyrimidine-2-carbonitrile]	< 15

Now from value to compound:

IC50 [nM]	Compound
< 15	N#CCn1ncc(-c2ccc3nc(-c4nccnc4N)n(-c4ccc(CN5CCC(Nc6ccnc(C#N)n6)CC5)cc4)c3n2)n1 [Example 632, 4-((1-(4-(2-(3-Aminopyrazin-2-yl)-5-(2-(cyanomethyl)-2H-1,2,3-triazol-4-yl)-3H-imidazo[4,5-b]pyridin-3-yl)benzyl)piperidin-4-yl)amino)pyrimidine-2-carbonitrile]
15 to 60	N#Cc1nccc(NC2CCN(Cc3ccc(-n4c(-c5nccnc5N)nc5ccc(-c6cnn(CC(N)=O)n6)nc54)cc3)CC2)n1 [Example 633, 2-(4-(2-(3-aminopyrazin-2-yl)-3-(4-((4-((2-cyanopyrimidin-4-yl)amino)piperidin-1-yl)methyl)phenyl)-3H-imidazo[4,5-b]pyridin-5-yl)-2H-1,2,3-triazol-2-yl)acetamide]
600 to 10000	N#Cc1nccc(NC2CCN(Cc3ccc(-n4c(-c5cccnc5N)nc5nc(C#N)c(C#N)nc54)cc3)CC2)n1 [Example 556, 2-(2-Aminopyridin-3-yl)-1-(4-((4-((2-cyanopyrimidin-4-yl)amino)piperidin-1-yl)methyl)phenyl)-1H-imidazo[4,5-b]pyrazine-5,6-dicarbonitrile]
< 15	N#Cc1nccc(NC2CCN(Cc3ccc(-n4c(-c5nccnc5N)nc5ccc(-c6ccc(F)cn6)nc54)cc3)CC2)n1 [Example 574, 4-((1-(4-(2-(3-Aminopyrazin-2-yl)-5-(5-fluoropyridin-2-yl)-3H-imidazo[4,5-b]pyridin-3-yl)benzyl)piperidin-4-yl)amino)pyrimidine-2-carbonitrile]
< 15	CCn1ncc(-c2ccc3nc(-c4cccnc4N)n(-c4ccc(CN5CCC(Nc6ccnc(C#N)n6)CC5)cc4)c3n2)n1 [Example 609, 4-((1-(4-(2-(2-Aminopyridin-3-yl)-5-(2-ethyl-2H-1,2,3-triazol-4-yl)-3H-imidazo[4,5-b]pyridin-3-yl)benzyl)piperidin-4-yl)amino)pyrimidine-2-carbonitrile]
15 to 60	N#Cc1nccc(NC2CCN(Cc3ccc(-n4c(-c5cccnc5N)nc5ccc(-c6ccc(C(F)(F)F)cn6)nc54)cc3)CC2)n1 [Example 650, 4-((1-(4-(2-(2-Aminopyridin-3-yl)-5-(5-(trifluoromethyl)pyridin-2-yl)-3H-imidazo[4,5-b]pyridin-3-yl)benzyl)piperidin-4-yl)amino)pyrimidine-2-carbonitrile]
15 to 60	COc1cnc(-c2ccc3nc(-c4cccnc4N)n(-c4ccc(CN5CCC(Nc6ccnc(C#N)n6)CC5)cc4)c3n2)nc1 [Example 581, 4-((1-(4-(2-(2-Aminopyridin-3-yl)-5-(5-methoxypyrimidin-2-yl)-3H-imidazo[4,5-b]pyridin-3-yl)benzyl)piperidin-4-yl)amino)pyrimidine-2-carbonitrile]
60 to 600	N#Cc1nccc(NC2CCN(Cc3ccc(-n4c(-c5cccnc5N)nc5cnccc54)cc3)CC2)n1 [Example 540, 4-((1-(4-(2-(2-Aminopyridin-3-yl)-1H-imidazo[4,5-c]pyridin-1-yl)benzyl)piperidin-4-yl)amino)pyrimidine-2-carbonitrile]

Same assay, conditions: competitive tracer displacement in living cells, read-out: AKT1 E17K IC50

IC50 [nM]	Compound
600 to 10000	N#Cc1ccnc(N2CCN(Cc3ccc(-n4c(-c5cccnc5N)nc5cccnc54)cc3)CC2)c1 [Example 17, 2-(4-(4-(2-(2-Aminopyridin-3-yl)-3H-imidazo[4,5-b]pyridin-3-yl)benzyl)piperazin-1-yl)isonicotinonitrile]
600 to 10000	N#Cc1ccncc1C(=O)NC1CCN(Cc2ccc(-n3c(-c4cccnc4N)nc4cccnc43)cc2)CC1 [Example 29, N-(1-(4-(2-(2-Aminopyridin-3-yl)-3H-imidazo[4,5-b]pyridin-3-yl)benzyl)piperidin-4-yl)-4-cyanonicotinamide]
600 to 10000	N#Cc1ccc(C(=O)NC2CCN(Cc3ccc(-n4c(-c5cccnc5N)nc5cccnc54)cc3)CC2)nc1 [Example 25, N-(1-(4-(2-(2-Aminopyridin-3-yl)-3H-imidazo[4,5-b]pyridin-3-yl)benzyl)piperidin-4-yl)-5-cyanopicolinamide]
60 to 600	N#Cc1nccc(N2CCN(Cc3ccc(-n4c(-c5cccnc5N)nc5ccc(N6CCOCC6)nc54)cc3)CC2)n1 [Example 235, 4-(4-(4-(2-(2-Aminopyridin-3-yl)-5-morpholino-3H-imidazo[4,5-b]pyridin-3-yl)benzyl)piperazin-1-yl)pyrimidine-2-carbonitrile]
600 to 10000	N#Cc1cc(NCc2ccc(-n3c(-c4cccnc4N)nc4cccnc43)cc2)ccn1 [Example 127, 4-((4-(2-(2-Aminopyridin-3-yl)-3H-imidazo[4,5-b]pyridin-3-yl)benzyl)amino)picolinonitrile]
600 to 10000	N#Cc1ccnc(NC2C3CCC2CN(Cc2ccc(-n4c(-c5cccnc5N)nc5ccc(-c6ccccc6)nc54)cc2)C3)n1 (stereo not drawn) [Example 231, 2-((3-(4-(2-(2-Aminopyridin-3-yl)-5-phenyl-3H-imidazo[4,5-b]pyridin-3-yl)benzyl)-3-azabicyclo[3.2.1]octan-8-yl)amino)pyrimidine-4-carbonitrile]
600 to 10000	N#Cc1cncc(NC2CCN(Cc3ccc(-n4c(-c5cccnc5N)nc5cccnc54)cc3)CC2)n1 [Example 76, 6-((1-(4-(2-(2-Aminopyridin-3-yl)-3H-imidazo[4,5-b]pyridin-3-yl)benzyl)piperidin-4-yl)amino)pyrazine-2-carbonitrile]
< 15	N#Cc1nc2cc(C(=O)N3CCN(Cc4ccc(-n5c(-c6cccnc6N)nc6ccc(-c7ccccc7)nc65)cc4)CC3)ccc2s1 [Example 184, 5-(4-(4-(2-(2-aminopyridin-3-yl)-5-phenyl-3H-imidazo[4,5-b]pyridin-3-yl)benzyl)piperazine-1-carbonyl)benzo[d]thiazole-2-carbonitrile]
